Experimental data taken from the NIST ThermoML archive (doi:10.1021/je050305z).

Conditions: Gas, Hot wire method

COC [dimethyl ether]
Conditions	thermal conductivity [W/m/K]
266.62 K, 148.1 kPa	0.01348
267.77 K, 148.1 kPa	0.01359
268.94 K, 148.1 kPa	0.01363
276.2 K, 155.8 kPa	0.01468
276.2 K, 207.5 kPa	0.01475
277.09 K, 207.5 kPa	0.01483
277.12 K, 155.8 kPa	0.01476
278.14 K, 155.8 kPa	0.01482
278.17 K, 207.5 kPa	0.01489
285.91 K, 253.2 kPa	0.01594
286.05 K, 144.6 kPa	0.01592
286.67 K, 253.2 kPa	0.016
286.89 K, 144.6 kPa	0.01605
287.68 K, 253.2 kPa	0.01614
287.99 K, 144.6 kPa	0.01606
295.96 K, 253.2 kPa	0.01725
296.02 K, 352.9 kPa	0.01726
296.03 K, 154.5 kPa	0.01715
296.69 K, 352.9 kPa	0.01736
296.76 K, 253.2 kPa	0.01733
296.8 K, 154.5 kPa	0.01728
297.39 K, 352.9 kPa	0.0174
297.64 K, 253.2 kPa	0.01739
297.76 K, 154.5 kPa	0.01734
305.64 K, 155.2 kPa	0.01827
305.64 K, 502.4 kPa	0.01848
305.8 K, 352.8 kPa	0.01842
306.69 K, 155.2 kPa	0.01839
306.69 K, 502.4 kPa	0.01861
306.8 K, 352.8 kPa	0.01854
307.53 K, 155.2 kPa	0.01852
307.53 K, 502.4 kPa	0.01872
307.82 K, 352.8 kPa	0.01861
315.68 K, 496.3 kPa	0.01958
315.77 K, 348.9 kPa	0.01952
316.05 K, 153.9 kPa	0.01955
316.35 K, 700.4 kPa	0.02006
316.55 K, 496.3 kPa	0.01971
316.56 K, 700.4 kPa	0.01992
316.75 K, 348.9 kPa	0.01967
317.06 K, 153.9 kPa	0.01957
317.2 K, 700.4 kPa	0.01999
317.63 K, 496.3 kPa	0.01983
317.81 K, 348.9 kPa	0.01977
318.26 K, 153.9 kPa	0.01971
325.16 K, 1120.2 kPa	0.02135
325.31 K, 883.7 kPa	0.02119
325.41 K, 701.6 kPa	0.02104
325.53 K, 500.8 kPa	0.02091
325.64 K, 348 kPa	0.0208
325.83 K, 151.5 kPa	0.02082
325.88 K, 1120.2 kPa	0.02135
326.11 K, 883.7 kPa	0.02133
326.2 K, 701.6 kPa	0.02113
326.36 K, 500.8 kPa	0.021
326.53 K, 348 kPa	0.02093
326.73 K, 1120.2 kPa	0.02156
326.79 K, 151.5 kPa	0.02087
326.99 K, 883.7 kPa	0.02145
327.16 K, 701.6 kPa	0.02125
327.38 K, 500.8 kPa	0.02116
327.53 K, 348 kPa	0.02098
327.88 K, 151.5 kPa	0.02094
335.18 K, 1196.9 kPa	0.02256
335.35 K, 898.7 kPa	0.02238
335.43 K, 705.2 kPa	0.02212
335.48 K, 353.4 kPa	0.02197
335.54 K, 505.2 kPa	0.02204
335.66 K, 152.2 kPa	0.02198
335.88 K, 1196.9 kPa	0.02272
336.11 K, 898.7 kPa	0.02244
336.23 K, 705.2 kPa	0.02226
336.32 K, 353.4 kPa	0.02209
336.37 K, 505.2 kPa	0.02217
336.45 K, 1196.9 kPa	0.0228
336.55 K, 152.2 kPa	0.02211
336.74 K, 898.7 kPa	0.0225
336.91 K, 705.2 kPa	0.02231
337.06 K, 505.2 kPa	0.02229
337.25 K, 353.4 kPa	0.02223
337.54 K, 152.2 kPa	0.02207
345.11 K, 1503.9 kPa	0.02418
345.23 K, 1200.4 kPa	0.0239
345.35 K, 897.3 kPa	0.02352
345.47 K, 700 kPa	0.02344
345.57 K, 502.5 kPa	0.02341
345.59 K, 1503.9 kPa	0.02427
345.67 K, 352.7 kPa	0.02338
345.74 K, 1200.4 kPa	0.02399
345.88 K, 154.3 kPa	0.02322
345.9 K, 897.3 kPa	0.02363
346.03 K, 700 kPa	0.0235
346.12 K, 1503.9 kPa	0.0244
346.15 K, 502.5 kPa	0.02351
346.26 K, 352.7 kPa	0.0234
346.29 K, 1200.4 kPa	0.02408
346.49 K, 897.3 kPa	0.02372
346.52 K, 154.3 kPa	0.02324
346.64 K, 700 kPa	0.02364
346.82 K, 502.5 kPa	0.02361
346.93 K, 352.7 kPa	0.0235
347.27 K, 154.3 kPa	0.02327
354.82 K, 2226 kPa	0.02637
355.11 K, 1777.8 kPa	0.02567
355.2 K, 1497.3 kPa	0.02536
355.22 K, 2226 kPa	0.02653
355.33 K, 1194.9 kPa	0.02506
355.47 K, 872.5 kPa	0.02483
355.55 K, 701.6 kPa	0.02472
355.58 K, 1777.8 kPa	0.02592
355.64 K, 504.3 kPa	0.02468
355.66 K, 2226 kPa	0.02632
355.69 K, 1497.3 kPa	0.02553
355.74 K, 356.1 kPa	0.02462
355.82 K, 1194.9 kPa	0.02508
355.89 K, 156.1 kPa	0.02441
355.97 K, 872.5 kPa	0.02489
356.09 K, 1777.8 kPa	0.02597
356.1 K, 701.6 kPa	0.02489
356.2 K, 504.3 kPa	0.02488
356.21 K, 1497.3 kPa	0.02554
356.31 K, 356.1 kPa	0.02481
356.38 K, 1194.9 kPa	0.02516
356.52 K, 156.1 kPa	0.02447
356.57 K, 872.5 kPa	0.02502
356.72 K, 701.6 kPa	0.0249
356.86 K, 504.3 kPa	0.02485
356.98 K, 356.1 kPa	0.02475
357.23 K, 156.1 kPa	0.02456
364.94 K, 2198.1 kPa	0.02782
365.09 K, 1801.9 kPa	0.02689
365.2 K, 1500.1 kPa	0.0265
365.3 K, 1202 kPa	0.02622
365.42 K, 906.2 kPa	0.02606
365.51 K, 697.2 kPa	0.02598
365.51 K, 2198.1 kPa	0.02789
365.59 K, 481.6 kPa	0.026
365.68 K, 346.3 kPa	0.02589
365.7 K, 1801.9 kPa	0.0271
365.81 K, 1500.1 kPa	0.02669
365.86 K, 156.4 kPa	0.02596
365.94 K, 1202 kPa	0.02635
365.99 K, 2198.1 kPa	0.02796
366.1 K, 906.2 kPa	0.02615
366.2 K, 697.2 kPa	0.02609
366.23 K, 1801.9 kPa	0.02723
366.31 K, 481.6 kPa	0.02599
366.35 K, 1500.1 kPa	0.02675
366.42 K, 346.3 kPa	0.02597
366.52 K, 1202 kPa	0.02642
366.66 K, 156.4 kPa	0.02591
366.7 K, 906.2 kPa	0.02622
366.82 K, 697.2 kPa	0.02608
366.96 K, 481.6 kPa	0.02612
367.09 K, 346.3 kPa	0.02604
367.38 K, 156.4 kPa	0.02597
374.95 K, 2704.4 kPa	0.03029
375.17 K, 2197.8 kPa	0.02893
375.29 K, 1766.8 kPa	0.02826
375.36 K, 1499.6 kPa	0.02784
375.46 K, 892.8 kPa	0.02733
375.49 K, 1198.6 kPa	0.02756
375.49 K, 2704.4 kPa	0.03041
375.54 K, 707.6 kPa	0.02738
375.63 K, 507.4 kPa	0.02734
375.72 K, 354 kPa	0.02727
375.76 K, 2197.8 kPa	0.0291
375.9 K, 152.4 kPa	0.02713
375.92 K, 1766.8 kPa	0.02831
375.95 K, 2704.4 kPa	0.03051
375.97 K, 1499.6 kPa	0.02793
376.14 K, 892.8 kPa	0.02756
376.17 K, 1198.6 kPa	0.0277
376.22 K, 707.6 kPa	0.02749
376.28 K, 2197.8 kPa	0.02917
376.35 K, 507.4 kPa	0.02737
376.45 K, 354 kPa	0.02739
376.46 K, 1766.8 kPa	0.02837
376.56 K, 1499.6 kPa	0.02791
376.68 K, 152.4 kPa	0.02726
376.72 K, 892.8 kPa	0.02758
376.75 K, 1198.6 kPa	0.02773
376.81 K, 707.6 kPa	0.02751
376.96 K, 507.4 kPa	0.0274
377.08 K, 354 kPa	0.02742
377.4 K, 152.4 kPa	0.0273
384.94 K, 3297.7 kPa	0.03329
385.16 K, 2700.7 kPa	0.03115
385.35 K, 2197 kPa	0.02995
385.44 K, 3297.7 kPa	0.03354
385.48 K, 1805.7 kPa	0.02946
385.56 K, 1500.6 kPa	0.02919
385.66 K, 1201.3 kPa	0.02897
385.74 K, 2700.7 kPa	0.03126
385.77 K, 899.9 kPa	0.02885
385.93 K, 503.9 kPa	0.02857
385.95 K, 703 kPa	0.0288
385.98 K, 2197 kPa	0.0301
386 K, 3297.7 kPa	0.03358
386.01 K, 355.6 kPa	0.02861
386.13 K, 1805.7 kPa	0.02959
386.2 K, 156.6 kPa	0.02852
386.22 K, 1500.6 kPa	0.02926
386.33 K, 1201.3 kPa	0.02917
386.38 K, 2700.7 kPa	0.03136
386.48 K, 899.9 kPa	0.02895
386.5 K, 2197 kPa	0.03017
386.6 K, 703 kPa	0.02886
386.65 K, 503.9 kPa	0.02873
386.65 K, 1805.7 kPa	0.02964
386.74 K, 1500.6 kPa	0.02936
386.79 K, 355.6 kPa	0.02867
386.93 K, 1201.3 kPa	0.02916
387.03 K, 156.6 kPa	0.02858
387.08 K, 899.9 kPa	0.02903
387.21 K, 703 kPa	0.02901
387.32 K, 503.9 kPa	0.02881
387.44 K, 355.6 kPa	0.02881
387.74 K, 156.6 kPa	0.02859

N#N [nitrogen]
Conditions	thermal conductivity [W/m/K]
235.41 K, 3405.4 kPa	0.02334
235.72 K, 3405.4 kPa	0.02333
255.55 K, 5432.8 kPa	0.026
255.7 K, 1281.1 kPa	0.02332
255.86 K, 5432.8 kPa	0.02596
256.26 K, 1281.1 kPa	0.02323
275.39 K, 5057.3 kPa	0.02674
275.41 K, 1027.7 kPa	0.02441
276.05 K, 5057.3 kPa	0.0269
276.11 K, 1027.7 kPa	0.02435
295.15 K, 1844.1 kPa	0.02606
295.25 K, 4380.8 kPa	0.02731
295.68 K, 1844.1 kPa	0.02599
295.92 K, 4380.8 kPa	0.02738
325.32 K, 716 kPa	0.02758
325.43 K, 2042.9 kPa	0.02842
326.2 K, 2042.9 kPa	0.02845
326.23 K, 4941.8 kPa	0.02961
326.39 K, 716 kPa	0.02763
